Results published in patent publication US7608289B2, “Food supplemented with a carnitine, suitable for stimulating the biosynthesis of polyunsaturated fatty acids from the saturated fatty acids contained in the food” (Sigma-Tau Industrie Farmaceutiche Riunite S.p.A., priority 1999, dated 2009).

Tests used:
[1] = Plasma lipid test: polyunsaturated to saturated fatty acid ratio in rabbits on milk diet plus carnitines; assay type: in vivo, New Zealand male rabbits; conditions: plasma lipids, carnitines given with milk diet, compared to controls
Excerpt: (§1) For these tests a batch of New Zealand male rabbits with a mean body weight of 3.7 kg was used, which, after a period of acclimatisation on a standard diet for eight days, were divided into different groups. One group received standard diet alone, while a second group received unskimmed milk mixed with pellets of the normal diet whose final composition was as follows: 4% fats, 24% proteins, 58% carbohydrates, 0.7% fibre, 10% water, 3% minerals and 1% vitamins. […]
(§2) After four weeks of treatment, blood samples were taken from the marginal vein of the ear and the plasma lipids obtained were subjected to measurement of the percentages of both saturated fatty acids and polyunsaturated fatty acids. The percentage amounts of unsaturated omega-3 fatty acids present in liver samples taken from the same animals were also measured. While total lipids were measured according to the method described by Schanfeld (Schanfeld G., J. Clin. Invest., 226:497, 1957) and Folch (Folch J., J. Biol. Chem., 226:497, 1957), the triglycerides and phospholipids were measured according to the method described by Terstra (Terstra A. H. M., Anal. Biochem., 11:149, 1981) and the n-3 and n-6 fatty acids according to the method described by Nestel (Nestel P. J., Ann. Rev. Nutr., 10:149, 1990) and Cevec (Cevec G., Biochemistry, 30:7:7186, 1991).

[2] = n-3 and n-6 fatty acids in hepatic phospholipids of rabbits on the diets; assay type: in vivo, New Zealand male rabbits; conditions: liver specimens, carnitines added to the milk diet
Excerpt: as §1, §2

Structure (SMILES)	change of the ratio of polyunsaturated to saturated fatty acids (in words) [1]	increase in n-3 fatty acids / improvement of n-3 to n-6 ratio in liver (in words) [2]
CC(=O)O[C@H](CC(=O)[O-])C[N+](C)(C)C [acetyl L-carnitine]	particularly evident	–
CCC(=O)O[C@H](CC(=O)[O-])C[N+](C)(C)C [propionyl L-carnitine]	particularly evident	most active compound
